From patent publication US20090169540A1, “Use Of An Antagonist Of Epac For Treating Human Cardiac Hypertrophy” (priority 2005, published 2009)
Read-outs that look alike come from different tables or passages of the source.

Columns and labels:
ANF promoter (ANF-Luc) = test: ANF-Luc reporter gene assay in neonatal cardiomyocytes; format: cell-based, rat; details: 8-CPT 1 μM, compared to control cells
Description: FIGS. 2A, 2C and 2D: Neonatal cardiomycoytes were transfected with ANF-Luc (FIG. 2A), SkM-α-actin-Luc (FIG. 2C) or c-fos-SRE-Luc (FIG. 2D) and EpacWT, RacG12V or the empty vector (mock) as control and treated or not with 8-CPT (1 μM). Two days after transfection, cells were assayed for luciferase activity. Results are expressed as percentage activation of control. Results are means±S.E.M. for 3 independent experiments performed in triplicates.
In FIGS. 8A, 8B and 8C, cardiomyocytes infected with Ad.GFP (control), Ad.RacS17N, Ad.EpacWT, or Ad.EpacWT and Ad.RacS17N were transfected with NFAT-Luc, MEF2-Luc or ANF-Luc. Two days after, Luc activity was determined. Luc activity was normalized to control for each experiment, and were expressed as means±S.E.M of at least 3 separate experiments performed in triplicate
The plasmid constructs were generously provided by the following: a −3003 bp fragment of the rat ANF promoter fused to the luciferase reporter gene (ANF-Luc) by Dr. K. Knowlton, Luciferase reporter genes linked to promoters for skeletal muscle α-actin (SkM-α-actin-Luc) and serum response element-regulated c-fos (c-fos-SRE-Luc) by Dr. M. D. Schneider, Epac1 plasmid constructs by Dr. J. Bos. […]

[1] = test system: neonatal rat ventricular myocytes; test: [3H]-leucine incorporation (protein synthesis), neonatal cardiomyocytes; format: cell-based; details: 8-CPT 1 μM, PE 1 μM or adenovirus
[2] = test system: neonatal rat ventricular myocytes; test: Sarcomeric / cytoskeletal organization by phalloidin staining, neonatal cardiomyocytes; format: cell-based; details: 48 h; 8-CPT (1 mM) and PE (1 mM) as printed, in Ad.GFP cells; vs Ad.GFP alone
[3] = test system: neonatal rat ventricular myocytes; test: Cell surface area by computer-assisted planimetry, neonatal cardiomyocytes; format: cell-based; details: for Cell surface area: 8-CPT 1 μM or PE 1 μM or adenovirus, compared to control Ad.GFP
[4] = test system: neonatal rat ventricular myocytes; format: cell-based
Rac [5] = test: Rac activation assay (Rac-GTP pull-down), primary rat ventricular cardiomyocytes; format: cell-based
Rac [6] = test: Rac activation assay (Rac-GTP pull-down), HL-1 atrial cells; format: cell-based, mouse
Description: Rac activation was determined as above. […] Rac-GTP samples and total lysates were separated on SDS-PAGE gels and transferred onto a polyvinylidene difluoride (PVDF) membrane (Amersham Pharmacia Biotech).

[7] = cited from earlier work
MEF2 (MEF2-Luc) = test: MEF2-Luc transcriptional activity in cardiomyocytes; format: cell-based, rat; details: cells infected with Ad.EpacWT or Ad.Epac-DcAMP; CsA 0.5 μM, KN-93 1 μM, or co-infection

CO[C@@H]1[C@@H]2OP(=O)(O)OC[C@H]2O[C@H]1n1c(Sc2ccc(Cl)cc2)nc2c(N)ncnc21 [8-CPT, 8-(4-chloro-phenylthio)-2′-O-methyladenosine-3′-5′cyclic monophosphate]
Activation of the ANF-Luc reporter gene (ANF promoter (ANF-Luc)): three fold activation
Protein synthesis ([3H]-leucine uptake) [1]: approximate two fold increase
Cytoskeletal (F-actin) / sarcomeric organization [2]: apparent increase of the F-actin meshwork and an heavily striated appearance
Cell surface area ([3]; 2 days): two fold increase
Effect of Ad.EpacWT on cell surface area in the presence of 8-CPT ([3]; Ad.EpacWT-infected cells plus 8-CPT 1 μM): not further increased
Frequency of spontaneous Ca2+ transients [4]: 0.51±0.04 Hz
Frequency of spontaneous Ca2+ transients ([4]; 8-CPT 100 nM, physiological external [Ca2+], n=13): 0.40±0.05 Hz
Ca2+ spike frequency ([4]; 8-CPT 10 μM in the presence of 20 mM external Cs+, n=8): 1.25±0.35 Hz
Effect on Ca2+ transients ([4]; 8-CPT 10 μM, absence of external Ca2+): had no effect
Amplitude of Ca2+ spikes ([4]; 8-CPT 10 μM, physiological external [Ca2+]): without changing the amplitude of the spikes
Ca2+ spike frequency ([4]; 8-CPT 100 μM, absence of external Ca2+, n=4): 0.12±0.02 Hz
Ca2+ spike frequency ([4]; 8-CPT 100 μM, absence of external Ca2+, presence of H89 1 μM, n=8): 0.23±0.049 Hz
Rac activation in cells infected with Ad.EpacWT (Rac [5]; Ad.EpacWT-infected cells treated with 8-CPT 1 μM for 10 min): further increased
Rac activation (Rac-GTP) (Rac [5]; activation of endogenous Epac, 8-CPT 1 μM, 10 min, rat cardiac myocytes): increased Rac activation
Amount of Rac-GTP / Rac activation (Rac [6]; HL-1 adult mouse atrial cells, 100 μM, 10 min exposure): strong increase in the amount of Rac-GTP
Treatment time upon which 8-CPT-induced Rac activation was detected (Rac [6]; HL-1 cells, 8-CPT 10 μM time course (FIG. 1C)): 5 min

CCCCc1oc2ccccc2c1C(=O)c1cc(I)c(OCCN(CC)CC)c(I)c1 [Amiodarone]
Hypothyroidism incidence ([7]; as high as, in some series): 8%-19%
Hyperthyroidism incidence ([7]; human, in vivo): about 2%
Liver function test abnormalities incidence ([7]; human, in vivo): 4%-9%
Other serious side effect ([7]; human, in vivo): optic neuropathy, which can lead to blindness
Proarrhythmia incidence ([7]; human, in vivo): 2%-5%
Hypothyroidism incidence ([7]; in some cases): 2%-4%

O=S(=O)(NCCNC/C=C/c1ccc(Br)cc1)c1cccc2cnccc12 [H89]
8-CPT-induced increase in Ca2+ transients frequency ([4]; H89 1 μM, 8-CPT 100 μM, absence of external Ca2+): failed to block

COc1ccc(S(=O)(=O)N(CCO)c2ccccc2CN(C)C/C=C/c2ccc(Cl)cc2)cc1 [KN-93]
Epac-induced MEF2 transcriptional (luciferase) activity (MEF2 (MEF2-Luc)): completely blocked
Ad.Epac-DcAMP-induced increase in cell surface area ([3]; KN-93 1 μM, 2 days): significantly decreased

CNC[C@H](O)c1cccc(O)c1 [PE, phenylephrine]
Protein synthesis ([3H]-leucine uptake) [1]: approximate two fold increase
Cytoskeletal (F-actin) / sarcomeric organization [2]: comparable
Cell surface area ([3]; 2 days): Identical results

C[C@H](CCC(=O)O)C[C@H](C)C[C@H](C)C(=O)/C=C(\O)[C@H](C)C[C@H](C)C/C=C/[C@@H](C)[C@@H](O)[C@@H](C)[C@@H](O)C[C@@H]1CC[C@@](C)([C@H]2CC[C@@](C)([C@@H](C)O)O2)O1 [ionomycin]
Effect on Rac activation relative to positive control PE (1 μM) (Rac [5]; ionomycin 1 μM vs PE 1 μM 15 min): as potent as PE
Rac activation (Rac [5]; ionomycin 1 μM, different times of incubation): increased Rac activation in a time dependent manner
